We go through 1 compound from PMC7738871, “Covalent modification of Keap1 at Cys77 and Cys434 by pubescenoside a suppresses oxidative stress-induced NLRP3 inflammasome activation in myocardial ischemia-reperfusion injury” (Theranostics, 2021).

For one data set, the system named is RAW264.7 macrophages. In words: MTT cytotoxicity, RAW264.7. The note with it: RAW264.7, under 240 μM, 48 h. It counts as cell-based. As for the experimental part: (§1) Cell viability was determined by MTT assays. PBA was prepared to a stock solution dissolved in dimethyl sulfoxide (DMSO). RAW264.7, H9c2 cells, primary mouse cardiomyocytes were treated with different doses of PBA, and DMSO only as control for 48 h for the toxicity. In addition, H9c2 cells or primary mouse cardiomyocytes were treated with the indicated doses of PBA, diazoxide as positive control, DMSO only as control, then cultured with or without OGD/R treatment. At the end of the experiments, MTT was added into each well at the concentration of 0.5 mg/ml, and incubated at 37 °C for 4 h. After removal of the supernatant, 150 μL of DMSO was added to solubilize the formazan products. And the solution was measured at the absorbance of 490 nm by a spectrophotometer (Thermo Fisher Scientific, MA, USA). The results of the MTT assay in all groups were normalized to the control group with DMSO only treatment.

Data set [1] deals with OGD/R-induced primary mouse cardiomyocytes. In words: OGD/R-induced injury, MTT viability, primary cardiomyocytes. It counts as cell-based. Conditions: 10 and 30 μM, OGD 3 h, reperfusion 18 h. As for the experimental part: The heart was removed from the neonatal C57BL/6 mice and cut into 1 mm^3 pieces in ice […] buffer. The tissues were digested with the mixture of 0.125% trypsin (Gibco, 15090-046) and 0.1% type II collagenase (Gibco, 17101-015) 6 min at 37 °C for three times until the tissues were completely digested. The cells were harvested and seeded in a dish. After 90 min of incubation, the cell culture medium was collected and centrifuged. The centrifuged cardiomyocytes were harvested, seeded on 0.1 % gelatin-coated culture plates with DMEM containing 10% FBS and […] Brdu, and incubated in a 37°C incubator.
as §1, with “After removal of the supernatant, 150 μL of DMSO was added to solubilize the formazan products.” left out, “The results of the MTT assay in all groups were normalized to the control group with DMSO only treatment.” left out

In data set [2] the test system is NLRP3 inflammasome. In words: LPS plus ATP-induced NLRP3 inflammasome in RAW264.7. It counts as cell-based. As to the method: Based on the previous study, RAW264.7 cells were treated with different concentrations of PBA 1 h before 200 ng/mL lipopolysaccharide (LPS) stimulation for 6 h. Then, 2 mM adenosine triphosphate (ATP) was added and incubated for 20 min at 37 °C with 5% CO2.
(§2) Total protein was isolated from H9c2 cells, primary mouse cardiomyocytes, RAW264.7 cells and heart tissue using 1X RIPA buffer containing phosphatase and proteinase inhibitors at 4 °C. After measurement of the concentration, the cell lysates were separated by sodium dodecyl sulphate polyacrylamide gel electrophoresis (SDS-PAGE) and transferred to polyvinylidene fluoride (PVDF) membranes. The membranes were blocked in Tris-buffered saline-Tween 20 (TBST) buffer with 5% BSA for 1 h and incubated with primary antibodies (1:1000 dilution) overnight at 4 °C. After the membranes was washed by TBST buffer for three times, they were incubated with horseradish peroxidase (HRP)-conjugated secondary mouse or rabbit antibodies (1:3,000 dilution) at room temperature (RT) for 1.5 h and then detected by SuperEnhanced chemiluminescence (ECL) reaction reagents (GBCBIO Technologies Inc., Guangzhou, Guangdong, China). […] After letting the membranes stand for 1-2 min, the bands of the respective proteins were detected with the exposure time of 10 ~60 s.
According to previous experiences, Nrf2 nucleus translocation could be detected at 6 h. […]

The test system of data set [3] is NLRP3 inflammasome. The data set can be described thus: OGD/R-induced NLRP3 inflammasome activation in H9c2. It is filed as cell-based, rat. The note with it: H9c2, OGD 6 h, reperfusion 18 h, dose-dependent. As to the method:
For OGD/R treatment, H9c2 cells were washed twice with phosphate buffered saline (PBS). The medium was changed to glucose and serum free DMEM, and H9c2 cells were incubated in an incubator with 95% N2 and 5% CO2 at 37 °C. After 6 h, the medium was replaced with DMEM containing 10% FBS and 1% PS. Then H9c2 cells were returned to a normal incubator with 5% CO2 balanced with air at 37 °C for the indicated time.
as §2, with “The membranes were blocked in Tris-buffered saline-Tween 20 (TBST) buffer with 5% BSA for 1 h and incubated with primary antibodies (1:1000 dilution) overnight at 4 °C.” left out

In data set [4] the test system is recombinant Keap1 mutant proteins. In words: Pull-down of recombinant Keap1 mutants with PBA-Sepharose 4B. It counts as binding, human. The note with it: cysteine to serine mutants. As for the experimental part:
PBA-Sepharose 4B beads were created by dissolving PBA in coupling buffer (100 mM NaHCO3, pH 8.3, 0.5 M NaCl). After washing with 1 mM HCl medium, Sepharose 4B beads were mixed with PBA coupling buffer and slowly rotated overnight at 4 °C. Excess PBA was washed away with coupling buffer and any remaining active groups were blocked with 0.1 M Tris-HCl buffer (pH 8.0) for 2 h. The medium was then washed with 0.1 M acetate buffer (pH 4.0) containing 0.5 M NaCl followed by a wash with 0.1 M Tris-HCl (pH 8.0) that also contained 0.5 M NaCl. PBA-Sepharose 4B beads were ready for use in the pull-down assay. The RAW264.7 cellular supernatant fraction (600 µg) was incubated with either PBA-Sepharose 4B or Sepharose 4B as a negative control in reaction buffer (50 mM Tris-HCl, pH 7.5, 5 mM EDTA, 150 mM NaCl, 1 mM DTT, 0.01% NP-40, 2 µg/mL of BSA, 0.02 mM PMSF, 1 × protease inhibitor cocktail). After incubation with gentle rocking overnight at 4 °C, the beads were washed five times with wash buffer (50 mM Tris-HCl, pH 7.5, 5 mM EDTA, 150 mM NaCl, 1 mM DTT, 0.01% NP-40, 0.02 mM PMSF) and proteins bound to the beads were analyzed by immunoblotting assay with a Keap1 antibody.
The mutant plasmid DNA was obtained by PCR. The PCR products were cleaved by DpnI restriction enzymes. […] Colonies were evaluated by colony PCR and sequenced. […]

For the compound `C=C(COC(=O)C=Cc1ccc(O)c(O)c1)C(O)COC1OC(CO)C(O)C(O)C1O` (stereo not shown) [PBA, pubescenoside A], the “cell toxicity (MTT)” value with RAW264.7 macrophages was “did not exhibit any cell toxicity”. Moreover, in data set [1], the “protection against OGD/R induced injury (cell viability, MTT)” value was “protected”. In addition, the “LPS/ATP-induced ACS and Caspase1 expression (immunofluorescent staining)” value in the data set with NLRP3 inflammasome [2] (RAW264.7, 30 μM) is given as “significantly reduced”. Besides, the “LPS/ATP-mediated NLPR3 induction, cleaved-caspase1 and IL-1β” value in the data set with NLRP3 inflammasome [2] (RAW264.7, PBA 1 h pretreatment, 200 ng/mL LPS 6 h, 2 mM ATP 20 min, western blot) is “attenuated”. Besides, the “OGD/R-induced inflammasome activation (NLRP3, cleaved-caspase1, mature IL-1β)” value in the data set with NLRP3 inflammasome [3] was “substantially inhibited”. In data set [4], the “binding of Keap1 mutants of Cys434, Cys77, Cys23 and Cys38 (pull-down)” value is given as “lost the capacity to bind”; the “binding of other Keap1 mutants (pull-down)” value is reported as “retained their high binding affinity”.
